According to paper PMC9250534, “Synthesis and direct assay of large macrocycle diversities by combinatorial late-stage modification at picomole scale” (Nature Communications, 2022):
Numbered stars: 1 amine (or outer) side, 2 acyl side, 3 side chain; on linkers, the order of the positions; unused ones are H or OH. Bridge positions count the residues as written; N and C are the ends. Square brackets hold non-standard residues; d marks the D form. Peptide text beside a SMILES is read from it. * marks the point of attachment. Pro(4S-NHCO(5-Cl-2-thienyl)) = O=C(N[C@@H]1CN[C@H](C(=O)O)C1)c1ccc(Cl)s1; 2Thenoyl(5-Cl) = O=C(c1ccc(Cl)s1)*; Benzoyl(4-Cl) = O=C(c1ccc(Cl)cc1)*; Cysteamide = C(CS[*:3])N[*:1]; X1 = O=C(/C=C/c1ccccc1)*; Dap = NC[C@H](N)C(=O)O; Mpa = O=C(O)CCS

Target: MDM2 (Homo sapiens, UniProt Q00987)
Assay: MDM2 binding screen: displacement of fluorescent p53 peptide probe FP53 (fluorescence polarization)
Conditions: crude macrocycle reactions; for fraction fluorescent probe displaced, Screen: initial screen
Procedure, shortened: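 Single-point screen: one fluorescence anisotropy reading at 25 °C (485 nm excitation, 535 nm emission) per macrocycle. Crude macrocycle reactions, final 10 µM, were scored for displacing the fluorescent p53 peptide from human MDM2.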

MDM2, sequence (Q00987 whole entry): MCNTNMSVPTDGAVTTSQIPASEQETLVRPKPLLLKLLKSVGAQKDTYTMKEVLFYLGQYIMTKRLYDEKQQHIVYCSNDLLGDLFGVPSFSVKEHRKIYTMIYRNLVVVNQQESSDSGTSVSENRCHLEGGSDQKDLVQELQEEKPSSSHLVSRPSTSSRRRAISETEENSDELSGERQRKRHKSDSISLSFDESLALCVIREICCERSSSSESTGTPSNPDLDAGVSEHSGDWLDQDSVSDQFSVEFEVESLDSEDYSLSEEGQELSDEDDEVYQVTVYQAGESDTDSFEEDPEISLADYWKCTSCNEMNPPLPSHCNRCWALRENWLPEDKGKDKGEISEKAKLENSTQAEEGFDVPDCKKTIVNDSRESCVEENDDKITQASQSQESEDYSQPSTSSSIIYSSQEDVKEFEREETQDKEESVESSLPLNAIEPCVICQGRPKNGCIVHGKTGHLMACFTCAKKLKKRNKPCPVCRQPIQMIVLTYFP

SMILES | fraction fluorescent probe displaced, Screen (Acid 14) | fraction fluorescent probe displaced, Replicate (Acid 14) | fraction fluorescent probe displaced, Screen (Acid 25) | fraction fluorescent probe displaced, Replicate (Acid 25) | fraction fluorescent probe displaced, Screen (Acid 91) | fraction fluorescent probe displaced, Replicate (Acid 91)
O=C1CCSSCCNC(=O)[C@@H]2C[C@H](NC(=O)c3ccc(Cl)s3)CN2C(=O)CCNC(=O)[C@H](Cc2ccccc2)N1 [X F B2 D5 Acid 14] | 0.08 | 0.07 |  |  |  | 
O=C1CCSSCCNC(=O)C2CC(NC(=O)c3ccc(Cl)cc3)CN2C(=O)CCNC(=O)C(Cc2ccccc2)N1 (stereo not drawn) [X F B2 D5 Acid 25] |  |  | 0.12 | 0.07 |  | 
O=C1CCSSCCNC(=O)C2(CCN(C(=O)c3ccc(Cl)s3)CC2)NC(=O)CCNC(=O)C(Cc2ccccc2)N1 (stereo not drawn) [X F B2 D6 Acid 14] | 0.20 | 0.0465 |  |  |  | 
O=C1CCSSCCNC(=O)C2(CCN(C(=O)c3ccc(Cl)cc3)CC2)NC(=O)CCNC(=O)[C@H](Cc2ccccc2)N1 [X F B2 D6 Acid 25] |  |  | -0.00813 | -0.03 |  | 
O=C1CCSSCCNC(=O)C2(CCN(C(=O)C=Cc3ccccc3)CC2)NC(=O)CCNC(=O)C(Cc2ccccc2)N1 (stereo not drawn) [X F B2 D6 Acid 91] |  |  |  |  | 0.0563 | -0.00827
O=C1CCSSCCNC(=O)C2CN(C(=O)c3ccc(Cl)s3)CCN2C(=O)CCNC(=O)C(Cc2ccccc2)N1 (stereo not drawn) [X F B2 D7 Acid 14] | 0.17 | 0.10 |  |  |  | 
O=C1CCSSCCNC(=O)C2CN(C(=O)c3ccc(Cl)cc3)CCN2C(=O)CCNC(=O)[C@H](Cc2ccccc2)N1 (stereo partly drawn) [X F B2 D7 Acid 25] |  |  | 0.12 | 0.10 |  | 
O=C1CCSSCCNC(=O)C2CN(C(=O)C=Cc3ccccc3)CCN2C(=O)CCNC(=O)C(Cc2ccccc2)N1 (stereo not drawn) [X F B2 D7 Acid 91] |  |  |  |  | 0.03 | 0.04
O=C1CCSSCCNC(=O)[C@H](CNC(=O)c2ccc(Cl)s2)NC(=O)[C@H]2CCCN(C2)C(=O)[C@H](Cc2ccccc2)N1 [X F B4 D3 Acid 14] | 0.23 | 0.17 |  |  |  | 
O=C1CCSSCCNC(=O)C(CNC(=O)c2ccc(Cl)cc2)NC(=O)C2CCCN(C2)C(=O)C(Cc2ccccc2)N1 (stereo not drawn) [X F B4 D3 Acid 25] |  |  | 0.12 | 0.22 |  | 
O=C(/C=C/c1ccccc1)NC[C@@H]1NC(=O)[C@H]2CCCN(C2)C(=O)[C@H](Cc2ccccc2)NC(=O)CCSSCCNC1=O [X F B4 D3 Acid 91] |  |  |  |  | 0.19 | 0.17
O=C1CCSSCCNC(=O)C2CC(NC(=O)c3ccc(Cl)s3)CN2C(=O)C2CCCN(C2)C(=O)C(Cc2ccccc2)N1 (stereo not drawn) [X F B4 D5 Acid 14] | 0.08 | 0.0465 |  |  |  | 
O=C1CCSSCCNC(=O)C2(CCN(C(=O)c3ccc(Cl)s3)CC2)NC(=O)[C@H]2CCCN(C2)C(=O)[C@H](Cc2ccccc2)N1 [X F B4 D6 Acid 14] | 0.08 | 0.20 |  |  |  | 
O=C1CCSSCCNC(=O)C2(CCN(C(=O)c3ccc(Cl)cc3)CC2)NC(=O)C2CCCN(C2)C(=O)C(Cc2ccccc2)N1 (stereo not drawn) [X F B4 D6 Acid 25] |  |  | 0.15 | 0.07 |  | 
O=C1CCSSCCNC(=O)C2(CCN(C(=O)/C=C/c3ccccc3)CC2)NC(=O)[C@H]2CCCN(C2)C(=O)[C@H](Cc2ccccc2)N1 [X F B4 D6 Acid 91] |  |  |  |  | 0.0563 | -0.00827
O=C1CCSSCCNC(=O)C2CN(C(=O)C=Cc3ccccc3)CCN2C(=O)C2CCCN(C2)C(=O)C(Cc2ccccc2)N1 (stereo not drawn) [X F B4 D7 Acid 91] |  |  |  |  | 0.0563 | 0.0168
O=C1CCSSCCNC(=O)C(CNC(=O)c2ccc(Cl)s2)NC(=O)c2cccc(c2)CNC(=O)C(Cc2ccccc2)N1 (stereo not drawn) [X F B5 D3 Acid 14] | 0.08 | -0.00432 |  |  |  | 
O=C(/C=C/c1ccccc1)NC[C@@H]1NC(=O)c2cccc(c2)CNC(=O)[C@H](Cc2ccccc2)NC(=O)CCSSCCNC1=O [X F B5 D3 Acid 91] |  |  |  |  | -0.05 | 0.04

SMILES | fraction fluorescent probe displaced, Screen (Acid 14) | fraction fluorescent probe displaced, Replicate (Acid 14) | fraction fluorescent probe displaced, Screen (Acid 25) | fraction fluorescent probe displaced, Replicate (Acid 25) | fraction fluorescent probe displaced, Screen (Acid 91) | fraction fluorescent probe displaced, Replicate (Acid 91)
O=C1CCSSCCNC(=O)[C@@H]2C[C@H](NC(=O)c3ccc(Cl)cc3)CN2C(=O)c2cccc(c2)CNC(=O)[C@H](Cc2ccccc2)N1 [X F B5 D5 Acid 25] |  |  | 0.0244 | -0.00432 |  | 
O=C1CCSSCCNC(=O)C2(CCN(C(=O)c3ccc(Cl)s3)CC2)NC(=O)c2cccc(c2)CNC(=O)C(Cc2ccccc2)N1 (stereo not drawn) [X F B5 D6 Acid 14] | 0.11 | 0.10 |  |  |  | 
O=C1CCSSCCNC(=O)C2(CCN(C(=O)c3ccc(Cl)cc3)CC2)NC(=O)c2cccc(c2)CNC(=O)[C@H](Cc2ccccc2)N1 [X F B5 D6 Acid 25] |  |  | 0.0569 | 0.0465 |  | 
O=C1CCSSCCNC(=O)C2(CCN(C(=O)/C=C/c3ccccc3)CC2)NC(=O)c2cccc(c2)CNC(=O)[C@H](Cc2ccccc2)N1 [X F B5 D6 Acid 91] |  |  |  |  | -0.08 | -0.00827
O=C1CCSSCCNC(=O)C2CN(C(=O)C=Cc3ccccc3)CCN2C(=O)c2cccc(c2)CNC(=O)C(Cc2ccccc2)N1 (stereo not drawn) [X F B5 D7 Acid 91] |  |  |  |  | -0.10 | -0.0333
O=C1CCSSCCNC(=O)[C@@H]2CCCN2C(=O)[C@H](CNC(=O)c2ccc(Cl)s2)NC(=O)[C@H](Cc2ccccc2)N1 [X F D3 B1 Acid 14] ([Mpa]F[Dap](2Thenoyl(5-Cl))P-Cysteamide; disulfide 1-C) | 0.08 | 0.10 |  |  |  | 
O=C1CCSSCCNC(=O)[C@@H]2CCCN2C(=O)[C@H](CNC(=O)c2ccc(Cl)cc2)NC(=O)[C@H](Cc2ccccc2)N1 [X F D3 B1 Acid 25] ([Mpa]F[Dap](Benzoyl(4-Cl))P-Cysteamide; disulfide 1-C) |  |  | 0.0569 | 0.15 |  | 
O=C(/C=C/c1ccccc1)NC[C@@H]1NC(=O)[C@H](Cc2ccccc2)NC(=O)CCSSCCNC(=O)[C@@H]2CCCN2C1=O [X F D3 B1 Acid 91] ([Mpa]F[Dap](X1)P-Cysteamide; disulfide 1-C) |  |  |  |  | -0.0241 | -0.00827
O=C1CCNC(=O)C(CNC(=O)c2ccc(Cl)s2)NC(=O)C(Cc2ccccc2)NC(=O)CCSSCCN1 (stereo not drawn) [X F D3 B2 Acid 14] | 0.053 | 0.0465 |  |  |  | 
O=C1CCNC(=O)[C@H](CNC(=O)c2ccc(Cl)cc2)NC(=O)[C@H](Cc2ccccc2)NC(=O)CCSSCCN1 [X F D3 B2 Acid 25] |  |  | 0.19 | 0.0211 |  | 
O=C1CCSSCCNC(=O)[C@H]2CCCN(C2)C(=O)[C@H](CNC(=O)c2ccc(Cl)s2)NC(=O)[C@H](Cc2ccccc2)N1 [X F D3 B4 Acid 14] | 0.053 | 0.10 |  |  |  | 
O=C1CCSSCCNC(=O)[C@H]2CCCN(C2)C(=O)[C@H](CNC(=O)c2ccc(Cl)cc2)NC(=O)[C@H](Cc2ccccc2)N1 [X F D3 B4 Acid 25] |  |  | 0.12 | 0.10 |  | 
O=C(/C=C/c1ccccc1)NC[C@@H]1NC(=O)[C@H](Cc2ccccc2)NC(=O)CCSSCCNC(=O)[C@H]2CCCN(C2)C1=O [X F D3 B4 Acid 91] |  |  |  |  | 0.11 | -0.0333
O=C1CCSSCCNC(=O)c2cccc(c2)CNC(=O)[C@H](CNC(=O)c2ccc(Cl)s2)NC(=O)[C@H](Cc2ccccc2)N1 [X F D3 B5 Acid 14] | 0.0241 | -0.03 |  |  |  | 
O=C1CCSSCCNC(=O)c2cccc(c2)CNC(=O)[C@H](CNC(=O)c2ccc(Cl)cc2)NC(=O)[C@H](Cc2ccccc2)N1 [X F D3 B5 Acid 25] |  |  | 0.0569 | 0.07 |  | 
O=C1CCSSCCNC(=O)[C@@H]2CCCN2C(=O)[C@@H]2C[C@H](NC(=O)c3ccc(Cl)s3)CN2C(=O)[C@H](Cc2ccccc2)N1 [X F D5 B1 Acid 14] ([Mpa]F[Pro(4S-NHCO(5-Cl-2-thienyl))]P-Cysteamide; disulfide 1-C) | 0.14 | 0.0465 |  |  |  | 
O=C(C=Cc1ccccc1)NC1CC2C(=O)N3CCCC3C(=O)NCCSSCCC(=O)NC(Cc3ccccc3)C(=O)N2C1 (stereo not drawn) [X F D5 B1 Acid 91] |  |  |  |  | -0.05 | -0.11
O=C(C=Cc1ccccc1)NC1CC2C(=O)NCCC(=O)NCCSSCCC(=O)NC(Cc3ccccc3)C(=O)N2C1 (stereo not drawn) [X F D5 B2 Acid 91] |  |  |  |  | 0.08 | 0.0168
